Measured values taken from PubChem BioAssay AID1259411 (Chemical Carcinogenesis Research Information System (CCRIS), 2018).
Activity calls are given as the source filed them. The rule behind the calls is not given here.

Test system: rodent carcinogenicity bioassays, tumor incidence
Experiment: CCRIS carcinogenicity studies
Summary of the method: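 Archive of carcinogenicity, mutagenicity, tumor promotion and tumor inhibition results drawn from journals, NCI reports and other sources, expert-reviewed; covers 1985-2011 and is no longer updated.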

CCOc1ccc(NC(=O)CC(C)O)cc1 (centres undefined)
carcinogen call (Species: MOUSE, Strain/Sex: B6C3F1/FEMALE, Route: ORAL, Dose: 0, 0.75, 1.5% IN BASAL DIET FOR 76 WK FOLLOWED BY BASAL DIET ONLY FOR 8 WK (STUDY DURATION: 84 WK), Dose: 0, 0.75, 1.5% IN BASAL DIET FOR 76 WK FOLLOWED BY BASAL DIET ONLY FOR 8 WK (STUDY DURATION: 84 WK)): inactive; negative | carcinogen call (Species: MOUSE, Strain/Sex: B6C3F1/MALE, Route: ORAL, Dose: 0, 0.75, 1.5% IN BASAL DIET FOR 76 WK FOLLOWED BY BASAL DIET ONLY FOR 8 WK (STUDY DURATION: 84 WK), Dose: 0, 0.75, 1.5% IN BASAL DIET FOR 76 WK FOLLOWED BY BASAL DIET ONLY FOR 8 WK (STUDY DURATION: 84 WK), Tumor Site: Type of Lesion: KIDNEY: RENAL CELL ADENOMA, RENAL CELL CARCINOMA): active; positive

Cc1cc(-c2ccccc2C)ccc1NO
carcinogen call (Species: RAT, Strain/Sex: ACI/SEG/MALE, Route: INTRAPERITONEAL, Dose: 0, 50 UMOL/KG BW 2X/WK FOR 10 WK BEGINNING AT 3 D OF AGE (STUDY DURATION: 68 WK), Tumor Site: Type of Lesion: COLON: CARCINOMA): active; positive | carcinogen call (Species: RAT, Strain/Sex: F344/MALE, Route: INTRAPERITONEAL, Dose: 0, 5, 10, 20 MG/KG 1/2 WK FOR 20 WK (STUDY DURATION: 60 WK), Dose: 0, 5, 10, 20 MG/KG 1/2 WK FOR 20 WK (STUDY DURATION: 60 WK), Tumor Site: Type of Lesion: PROSTATE: CARCINOMA, PERITONEUM: TUMOR, COLON: TUMOR, Tumor Site: Type of Lesion: PROSTATE: CARCINOMA, PERITONEUM: TUMOR, COLON: TUMOR): active; positive

CC/C(C)=N\O
carcinogen call (Species: MOUSE, Strain/Sex: CD-1/FEMALE, Route: INHALATION, Dose: 0, 15, 75, 374 PPM 6 HR/D 5 D/WK FOR 26 MO (STUDY DURATION: 26 MO), Dose: 0, 15, 75, 374 PPM 6 HR/D 5 D/WK FOR 26 MO (STUDY DURATION: 26 MO)): inactive; negative | carcinogen call (Species: MOUSE, Strain/Sex: CD-1/MALE, Route: INHALATION, Dose: 0, 15, 75, 374 PPM 6 HR/D 5 D/WK FOR 26 MO (STUDY DURATION: 26 MO), Dose: 0, 15, 75, 374 PPM 6 HR/D 5 D/WK FOR 26 MO (STUDY DURATION: 26 MO), Tumor Site: Type of Lesion: LIVER: CARCINOMA, ADENOMA OR CARCINOMA): active; positive | carcinogen call (Species: RAT, Strain/Sex: F344/FEMALE, Route: INHALATION, Dose: 0, 15, 75, 374 PPM 6 HR/D 5 D/WK FOR 26 MO (STUDY DURATION: 26 MO), Dose: 0, 15, 75, 374 PPM 6 HR/D 5 D/WK FOR 26 MO (STUDY DURATION: 26 MO)): inactive; negative | carcinogen call (Species: RAT, Strain/Sex: F344/MALE, Route: INHALATION, Dose: 0, 15, 75, 374 PPM 6 HR/D 5 D/WK FOR 26 MO (STUDY DURATION: 26 MO), Dose: 0, 15, 75, 374 PPM 6 HR/D 5 D/WK FOR 26 MO (STUDY DURATION: 26 MO), Tumor Site: Type of Lesion: LIVER: ADENOMA, CARCINOMA, ADENOMA OR CARCINOMA): active; positive

COc1ccc2c3c1O[C@H]1[C@@H](O)C=C[C@H]4[C@@H](C2)N(C)CC[C@@]341
carcinogen call (Species: MOUSE, Strain/Sex: B6C3F1/FEMALE, Route: ORAL, Dose: 0, 750, 1500, 3000 PPM IN DIET FOR UP TO 106 WK (STUDY DURATION: 106 WK), Dose: 0, 750, 1500, 3000 PPM IN DIET FOR UP TO 106 WK (STUDY DURATION: 106 WK)): inactive; negative | carcinogen call (Species: MOUSE, Strain/Sex: B6C3F1/MALE, Route: ORAL, Dose: 0, 750, 1500, 3000 PPM IN DIET FOR UP TO 106 WK (STUDY DURATION: 106 WK), Dose: 0, 750, 1500, 3000 PPM IN DIET FOR UP TO 106 WK (STUDY DURATION: 106 WK)): inactive; negative | carcinogen call (Species: RAT, Strain/Sex: F344/FEMALE, Route: ORAL, Dose: 0, 400, 800, 1600 PPM IN DIET FOR UP TO 106 WK (STUDY DURATION: 106 WK), Dose: 0, 400, 800, 1600 PPM IN DIET FOR UP TO 106 WK (STUDY DURATION: 106 WK)): inactive; negative | carcinogen call (Species: RAT, Strain/Sex: F344/MALE, Route: ORAL, Dose: 0, 400, 800, 1600 PPM IN DIET FOR UP TO 106 WK (STUDY DURATION: 106 WK), Dose: 0, 400, 800, 1600 PPM IN DIET FOR UP TO 106 WK (STUDY DURATION: 106 WK)): inactive; negative

C#C[C@]1(O)CC[C@H]2[C@@H]3CCc4cc(O)ccc4[C@H]3CC[C@@]21C
carcinogen call (Species: MOUSE, Route: ORAL, Tumor Site: Type of Lesion: CERVIX, MAMMARY GLAND, PITUITARY GLAND, UTERUS, Tumor Site: Type of Lesion: CERVIX, MAMMARY GLAND, PITUITARY GLAND, UTERUS): active; positive | carcinogen call (Species: MOUSE, Strain/Sex: CD-1/FEMALE, Route: SUBCUTANEOUS, Dose: 0, 2 UG/D IN CORN OIL ON DAYS 1-5 OF LIFE (STUDY DURATION: 12-18 WK), Tumor Site: Type of Lesion: UTERUS: ADENOCARCINOMA): active; positive | carcinogen call (Species: RAT, Route: ORAL, SUBCUTANEOUS, Tumor Site: Type of Lesion: LIVER): active; positive | carcinogen call (Species: Rat, Strain/Sex: Sprague-Dawley/Female (50/Group), Route: Oral, Dose: 0, 2, 10, 50 ppb in diet, continuous exposure from conception through 2 yr, Dose: 0, 2, 10): inactive; negative | carcinogen call (Species: Rat, Strain/Sex: Sprague-Dawley/Female (50/Group), Route: Oral, Dose: 0, 2, 10, 50 ppb in diet, continuous exposure from conception through PND 140, followed by control diet to 2 yr, Dose: 0, 2, 10): inactive; negative (authors describe as equivocal evidence based on stromal polyp (2/51, 5 | carcinogen call (Species: Rat, Strain/Sex: Sprague-Dawley/Male (50/Group), Route: Oral, Dose: 0, 2, 10, 50 ppb in diet, continuous exposure from conception through 2 yr, Dose: 0, 2, 10): inactive; negative | carcinogen call (Species: Rat, Strain/Sex: Sprague-Dawley/Male (50/Group), Route: Oral, Dose: 0, 2, 10, 50 ppb in diet, continuous exposure from conception through PND 140, followed by control diet to 2 yr, Dose: 0, 2, 10): inactive; negative

CNC(=O)c1c(N(C)N=O)ncn1C
carcinogen call (Species: RAT, Strain/Sex: BD-IX/MALE, FEMALE, Route: ORAL, Dose: 0, 3, 5, 15 MG/KG/D IN DRINKING WATER 5D/WK FOR DURATION OF STUDY (STUDY DURATION: LIFETIME), Dose: 0, 3, 5, 15 MG/KG/D IN DRINKING WATER 5D/WK FOR DURATION OF STUDY (STUDY DURATION: LIFETIME), Tumor Site: Type of Lesion: NASAL CAVITY: TUMOR): active; positive

CCn1cc(C(=O)O)c(=O)c2cc(F)c(N3CCNCC3)cc21
carcinogen call (Species: Rat, Strain/Sex: F344/Male (15/Group), Route: Oral, Dose: 0, 750, 1500 mg/kg daily for 3 wks after 2/3rd partial hepatectomy, from 2 wks after carcinogen dosing, 500 ppm phenobar, Tumor Site: Type of Lesion: Liver): inactive; negative

Cc1ccc(N)cc1
carcinogen call (Species: MOUSE, Route: ORAL, Tumor Site: Type of Lesion: LIVER): active; positive

C/C=C/c1ccc2c(c1)OCO2
carcinogen call (Species: MOUSE, Strain/Sex: B6C3F1/MALE,FEMALE, Route: GAVAGE/ORAL, Dose: 215 MG/KG FROM D 6= 28 OF LIFE THEN 517 MG/KG IN DIET, Tumor Site: Type of Lesion: LIVER): active; positive | carcinogen call (Species: RAT, Route: ORAL, Dose: 1000, 2500, 5000, 10000 MG/KG IN DIET FOR 2 YR, Dose: 1000, 2500, 5000, 10000 MG/KG IN DIET FOR 2 YR, Tumor Site: Type of Lesion: LIVER: HEPATOCELLULAR ADENOMA, CARCINOMA): active; positive

O=Nc1cc2c3ccccc3ccc2c2ccccc12
carcinogen call (Species: MOUSE, Strain/Sex: SWISS/FEMALE, Route: INTRAPERITONEAL, Dose: 0, 100 NMOL (TOTAL DOSE) 1/7, 2/7 AND 4/7 ADMINISTERED ON DAYS 1, 8 AND 15 OF LIFE RESPECTIVELY (STUDY DURATION: 32 WK), Tumor Site: Type of Lesion: LUNG: TUMOR): active; positive | carcinogen call (Species: MOUSE, Strain/Sex: SWISS/MALE, Route: INTRAPERITONEAL, Dose: 0, 100 NMOL (TOTAL DOSE) 1/7, 2/7 AND 4/7 ADMINISTERED ON DAYS 1, 8 AND 15 OF LIFE RESPECTIVELY (STUDY DURATION: 32 WK), Tumor Site: Type of Lesion: LUNG: TUMOR, LIVER: TUMOR): active; positive

CC(N)=O
carcinogen call (Species: RAT, Strain/Sex: WISTAR/MALE, Route: ORAL, Dose: 1.25, 2.5, 5% IN DIET FOR ONE YR, Dose: 1.25, 2.5, 5% IN DIET FOR ONE YR, Tumor Site: Type of Lesion: LIVER: TRABECULAR CARCINOMA, ADENOCARCINOMA, HEPATOMA): active; positive

ClC(Cl)c1ccccc1
carcinogen call (Species: RAT, Strain/Sex: F344/FEMALE, Route: ORAL, Dose: 0, 0.1, 0.5, 2% IN FEED FOR 104 WK (STUDY DURATION: 104 WK), Dose: 0, 0.1, 0.5, 2% IN FEED FOR 104 WK (STUDY DURATION: 104 WK)): inactive; negative | carcinogen call (Species: RAT, Strain/Sex: F344/MALE, Route: ORAL, Dose: 0, 0.1, 0.5, 2% IN FEED FOR 104 WK (STUDY DURATION: 104 WK), Dose: 0, 0.1, 0.5, 2% IN FEED FOR 104 WK (STUDY DURATION: 104 WK)): inactive; negative
